According to patent US20190192543A1, “NOVEL USE” (IDOGEN AB, priority 2016, published 2019):

Tested on: IDO1 gene expression in THP-1 cells
Experiment: Induction of IDO1 in THP-1 cells (RT-qPCR)
Type: cell-based, human
Conditions: for IDO1 expression (fold change): 96 hours, normalised to HPRT1, vs DMSO control
Protocol: THP-1 cells were harvested from appropriate number of T75 flasks. Cells were counted in a Bürker chamber, stained with 0.4% Trypan Blue. The appropriate number of cells for each experiment were transferred to a new tube and centrifuged at 1200 rpm, 5 min at room temperature (RT). The supernatant was discarded and fresh RPMI with 5% FBS were added to get a cell concentration of 2×10^5 cells/mL. The compound was added to the five separate wells in 6-well plates such that five different final concentrations were obtained after adding the cells. A control was added to one well in the 6-well plate to which cells were added. 1×10^6 cells per well were seeded out to achieve a total volume of 5 mL per well. The cells were incubated at 37° C. in 5% CO2 for 96 hours. After 96 hours the assay was stopped and the cells were lysed for the isolation of RNA.
Total RNA was extracted from THP-1 cells using the RNA RNeasy Mini extraction kit (Qiagen), according to the manufacturer's instructions. A SuperScript® VILO™ RT-kit (Thermo Fisher) was used to reverse transcribe 1 μg of total RNA to cDNA and qPCR was performed. The primers used for amplification of the human IDO1 gene were 5″-[…]-3″ (forward; SEQ ID No. 1) and 5″-[…]-3″ (reverse; SEQ ID No. 2). The primers used for amplification of the endogenous reference gene for human HPRT1 were 5″-[…]-3″ (forward; SEQ ID No. 3) and 5″-[…]-3″ (reverse; SEQ ID No. 4). In brief, RT-qPCR was performed in 20 μl reaction, consisting 10 μl PowerUp SYBR Green Master Mix, 0.5 μM of each primer, 4 μl diluted cDNA for amplification of IDO1 and 1.5 μl diluted cDNA for amplification of HPRT1. An iCycler iQ real-time detection system (Stratagene, Mx3000P, La Jolla, Calif., USA) with the following thermal profile: UDG incubation at 50° C. for 2 min, then denaturation at 95° C. for 5 min, followed by 45 cycles at 94° C. for 15 s, 58° C. for 30 s, and 60° C. for 30 s, was used to perform thermocycling and real-time detection of PCR products. After amplification a melting curve analysis was performed. The RT-qPCR experiments were always run in triplicate. IDO1 was normalised to the geometric means of two HPRT1 reference gene, using the ΔCt method. Within-group comparisons were normalized to one control sample, using the ΔΔCt method.
The procedure under “Induction of IDO1 in THP-1 cells” was followed such that the final concentrations set out in Table 1 were obtained.
Following RNA extraction and quantification of gene expression by RT-qPRC, as described above, induction of IDO1 gene expression using Samples 1 to 6 was investigated.

## Nc1ncn([C@H]2C[C@H](OP(=O)(O)OC[C@H]3O[C@@H](n4cnc5c(=O)[nH]c(N)nc54)C[C@@H]3O)[C@@H](CO)O2)c(=O)n1 [guadecitabine]
0.1 micromolar
  IDO1 expression (fold change): 2.1 fold change
0.3 micromolar
  IDO1 expression (fold change): 4.7 fold change
1 micromolar
  IDO1 expression (fold change): 34 fold change
3 micromolar
  IDO1 expression (fold change): 68 fold change
10 micromolar
  IDO1 expression (fold change): 74 fold change
Guadecitabine alone, 0.1-10 micromolar, highest induction at 10 micromolar
  increase of IDO1 gene expression (maximum over tested concentrations): up to 74 fold
